43 sequences from the supplement of paper PMC11208160 can be followed below.

The nature of the series: recombinant barcode read abundance after kanamycin selection (control-corrected) (log10(CPM+1)); higher = more efficient recombination; sequences stand for … in AGTGCAGAGAAAATCGGCCAGTTTTCTCTGCCTGCAGTCCGCATGCCGT…ATTTATGCAGCGGACTGCCTTTCTCCCAAAGTGATAAACCGGACAGTATCATGGACCGGTTTTCCCGGTAATCCGTATTTGCAAGGTTGGTTTCACT; site = the 11-nt target. An outline of the steps:
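Oligos holding a promoter, target, barcode and the J23119-driven first 104 bases of the bridge RNA were Gibson-cloned into a vector that supplied the other 73 bp plus a T7-inducible recombinase. This library was co-electroporated with a donor plasmid into E. coli. Two replicates went on chloramphenicol/ampicillin LB agar (control) and two on chloramphenicol/ampicillin/kanamycin with 0.1 mM IPTG. Recombination efficiency is read from averaged, control-corrected barcode counts per million at recombinant junctions, reported as log10(CPM+1).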
On to “CGGTCCCTATGGGTTCTAACCTGTTGCCAAG [CGGTCCCCTTG_LTGcore_TA_RTGcore_CT] (site CGGTCCCCTTG) (LTG core: TA, RTG core: CT)”, for which the “recombinant barcode read abundance (log10)” value turned out to be 0.0831.

In the case of “GAGCCCAAGTGGGTTCTAACCTGTTGCCTCT [GAGCCCACTAG_LTGcore_AG_RTGcore_AG] (site GAGCCCACTAG) (LTG core: AG, RTG core: AG)”, the “recombinant barcode read abundance (log10)” value was determined as 0.229.

Regarding “GAGCCCACATGGGTTCTAACCTGTTGCCTAG [GAGCCCACTAG_LTGcore_CA_RTGcore_CT] (site GAGCCCACTAG) (LTG core: CA, RTG core: CT)”, the “recombinant barcode read abundance (log10)” value was 0.304. Under “GAGCCCACTTGGGTTCTAACCTGTTGCCTCC [GAGCCCACTAG_LTGcore_CT_RTGcore_GG] (site GAGCCCACTAG) (LTG core: CT, RTG core: GG)” stands 0.136; under “GAGCCCACTTGGGTTCTAACCTGTTGCCTGA [GAGCCCACTAG_LTGcore_CT_RTGcore_TC] (site GAGCCCACTAG) (LTG core: CT, RTG core: TC)”, 0.207; under “GAGCCCACTTGGGTTCTAACCTGTTGCCTGC [GAGCCCACTAG_LTGcore_CT_RTGcore_GC] (site GAGCCCACTAG) (LTG core: CT, RTG core: GC)”, 0.3. As to “GAGCCCACTTGGGTTCTAACCTGTTGCCTGG [GAGCCCACTAG_LTGcore_CT_RTGcore_CC] (site GAGCCCACTAG) (LTG core: CT, RTG core: CC)”, the “recombinant barcode read abundance (log10)” value amounted to 0.911. In the case of “GAGCCCACTTGGGTTCTAACCTGTTGCCTGT [GAGCCCACTAG_LTGcore_CT_RTGcore_AC] (site GAGCCCACTAG) (LTG core: CT, RTG core: AC)”, the “recombinant barcode read abundance (log10)” value is 0.522. As for “GAGCCCACTTGGGTTCTAACCTGTTGCCTTC [GAGCCCACTAG_LTGcore_CT_RTGcore_GA] (site GAGCCCACTAG) (LTG core: CT, RTG core: GA)”, the “recombinant barcode read abundance (log10)” value turned out to be 0.518.

Regarding “GAGCCCAGCTGGGTTCTAACCTGTTGCCTAG [GAGCCCACTAG_LTGcore_GC_RTGcore_CT] (site GAGCCCACTAG) (LTG core: GC, RTG core: CT)”, the “recombinant barcode read abundance (log10)” value stood at 0.266. For “GAGCCCATGTGGGTTCTAACCTGTTGCCTCA [GAGCCCACTAG_LTGcore_TG_RTGcore_TG] (site GAGCCCACTAG) (LTG core: TG, RTG core: TG)” the value was 0.995; for “GAGGCCTCTTGGGTTCTAACCTGTTGCCAAC [GAGGCCTCTTG_LTGcore_CT_RTGcore_GT] (site GAGGCCTCTTG) (LTG core: CT, RTG core: GT)”, 1.25; for “GAGGCCTCTTGGGTTCTAACCTGTTGCCAGA [GAGGCCTCTTG_LTGcore_CT_RTGcore_TC] (site GAGGCCTCTTG) (LTG core: CT, RTG core: TC)”, 0.245. Under “GAGGCCTCTTGGGTTCTAACCTGTTGCCATG [GAGGCCTCTTG_LTGcore_CT_RTGcore_CA] (site GAGGCCTCTTG) (LTG core: CT, RTG core: CA)” stands 0.0789. Under “GAGGCCTGGTGGGTTCTAACCTGTTGCCAAG [GAGGCCTCTTG_LTGcore_GG_RTGcore_CT] (site GAGGCCTCTTG) (LTG core: GG, RTG core: CT)” stands 0.103; under “GAGGCCTGGTGGGTTCTAACCTGTTGCCACC [GAGGCCTCTTG_LTGcore_GG_RTGcore_GG] (site GAGGCCTCTTG) (LTG core: GG, RTG core: GG)”, 0.445.

For “GAGTCCAAATGGGTTCTAACCTGTTGCGTTT [GAGTCCACTAC_LTGcore_AA_RTGcore_AA] (site GAGTCCACTAC) (LTG core: AA, RTG core: AA)”, the “recombinant barcode read abundance (log10)” value is 0.0227. Under “GAGTCCAACTGGGTTCTAACCTGTTGCGTGT [GAGTCCACTAC_LTGcore_AC_RTGcore_AC] (site GAGTCCACTAC) (LTG core: AC, RTG core: AC)” stands 0.0932.

As for “GAGTCCAATTGGGTTCTAACCTGTTGCGTAG [GAGTCCACTAC_LTGcore_AT_RTGcore_CT] (site GAGTCCACTAC) (LTG core: AT, RTG core: CT)”, the “recombinant barcode read abundance (log10)” value stood at 0.156. Under “GAGTCCACCTGGGTTCTAACCTGTTGCGTGG [GAGTCCACTAC_LTGcore_CC_RTGcore_CC] (site GAGTCCACTAC) (LTG core: CC, RTG core: CC)” stands 0.0684; under “GAGTCCACGTGGGTTCTAACCTGTTGCGTAG [GAGTCCACTAC_LTGcore_CG_RTGcore_CT] (site GAGTCCACTAC) (LTG core: CG, RTG core: CT)”, 0.114. For “GAGTCCACTTGGGTTCTAACCTGTTGCGTAT [GAGTCCACTAC_LTGcore_CT_RTGcore_AT] (site GAGTCCACTAC) (LTG core: CT, RTG core: AT)”, the “recombinant barcode read abundance (log10)” value was found to be 0.389. For “GAGTCCACTTGGGTTCTAACCTGTTGCGTCG [GAGTCCACTAC_LTGcore_CT_RTGcore_CG] (site GAGTCCACTAC) (LTG core: CT, RTG core: CG)”, the “recombinant barcode read abundance (log10)” value was found to be 0.702. For the sequence “GAGTCCAGCTGGGTTCTAACCTGTTGCGTAG [GAGTCCACTAC_LTGcore_GC_RTGcore_CT] (site GAGTCCACTAC) (LTG core: GC, RTG core: CT)”, the “recombinant barcode read abundance (log10)” value amounted to 0.0179. Regarding “GAGTCCAGTTGGGTTCTAACCTGTTGCGTAG [GAGTCCACTAC_LTGcore_GT_RTGcore_CT] (site GAGTCCACTAC) (LTG core: GT, RTG core: CT)”, the “recombinant barcode read abundance (log10)” value turned out to be 0.283.

As to “GAGTCCATTTGGGTTCTAACCTGTTGCGTAA [GAGTCCACTAC_LTGcore_TT_RTGcore_TT] (site GAGTCCACTAC) (LTG core: TT, RTG core: TT)”, the “recombinant barcode read abundance (log10)” value came out at 0.0342. Under “GAGTCCTACTGGGTTCTAACCTGTTGCCTAG [GAGTCCTCTAG_LTGcore_AC_RTGcore_CT] (site GAGTCCTCTAG) (LTG core: AC, RTG core: CT)” stands 0.674; under “GAGTCCTACTGGGTTCTAACCTGTTGCCTGT [GAGTCCTCTAG_LTGcore_AC_RTGcore_AC] (site GAGTCCTCTAG) (LTG core: AC, RTG core: AC)”, 0.011.

With “GAGTCCTAGTGGGTTCTAACCTGTTGCCTAG [GAGTCCTCTAG_LTGcore_AG_RTGcore_CT] (site GAGTCCTCTAG) (LTG core: AG, RTG core: CT)”, the “recombinant barcode read abundance (log10)” value was 0.445. For “GAGTCCTCATGGGTTCTAACCTGTTGCCTAG [GAGTCCTCTAG_LTGcore_CA_RTGcore_CT] (site GAGTCCTCTAG) (LTG core: CA, RTG core: CT)”, the “recombinant barcode read abundance (log10)” value is 1.08.

With “GAGTCCTCCTGGGTTCTAACCTGTTGCCTGG [GAGTCCTCTAG_LTGcore_CC_RTGcore_CC] (site GAGTCCTCTAG) (LTG core: CC, RTG core: CC)”, the “recombinant barcode read abundance (log10)” value amounted to 0.561. Under “GAGTCCTCTTGGGTTCTAACCTGTTGCCTAA [GAGTCCTCTAG_LTGcore_CT_RTGcore_TT] (site GAGTCCTCTAG) (LTG core: CT, RTG core: TT)” stands 1.08; under “GAGTCCTCTTGGGTTCTAACCTGTTGCCTCC [GAGTCCTCTAG_LTGcore_CT_RTGcore_GG] (site GAGTCCTCTAG) (LTG core: CT, RTG core: GG)”, 1.21. For the sequence “GAGTCCTGCTGGGTTCTAACCTGTTGCCTAG [GAGTCCTCTAG_LTGcore_GC_RTGcore_CT] (site GAGTCCTCTAG) (LTG core: GC, RTG core: CT)”, the “recombinant barcode read abundance (log10)” value came to 0.0703. Turning to “GAGTCCTTATGGGTTCTAACCTGTTGCCTTA [GAGTCCTCTAG_LTGcore_TA_RTGcore_TA] (site GAGTCCTCTAG) (LTG core: TA, RTG core: TA)”, the “recombinant barcode read abundance (log10)” value was 0.136.

Regarding “GAGTCCTTCTGGGTTCTAACCTGTTGCCTAG [GAGTCCTCTAG_LTGcore_TC_RTGcore_CT] (site GAGTCCTCTAG) (LTG core: TC, RTG core: CT)”, the “recombinant barcode read abundance (log10)” value was 0.0148.

With “GAGTCCTTCTGGGTTCTAACCTGTTGCCTGA [GAGTCCTCTAG_LTGcore_TC_RTGcore_TC] (site GAGTCCTCTAG) (LTG core: TC, RTG core: TC)”, the “recombinant barcode read abundance (log10)” value is 0.0603. Turning to “GAGTCCTTGTGGGTTCTAACCTGTTGCCTCA [GAGTCCTCTAG_LTGcore_TG_RTGcore_TG] (site GAGTCCTCTAG) (LTG core: TG, RTG core: TG)”, the “recombinant barcode read abundance (log10)” value worked out at 0.235. Under “GCGCGACAATGGGTTCTAACCTGTTGCTTTT [GCGCGACCTAA_LTGcore_AA_RTGcore_AA] (site GCGCGACCTAA) (LTG core: AA, RTG core: AA)” stands 0.188. Take “GCGCGACCATGGGTTCTAACCTGTTGCTTTG [GCGCGACCTAA_LTGcore_CA_RTGcore_CA] (site GCGCGACCTAA) (LTG core: CA, RTG core: CA)”: the “recombinant barcode read abundance (log10)” value turned out to be 0.125. For “GCGCGACCCTGGGTTCTAACCTGTTGCTTGG [GCGCGACCTAA_LTGcore_CC_RTGcore_CC] (site GCGCGACCTAA) (LTG core: CC, RTG core: CC)” the value was 0.0343; for “GCGCGACCTTGGGTTCTAACCTGTTGCTTAA [GCGCGACCTAA_LTGcore_CT_RTGcore_TT] (site GCGCGACCTAA) (LTG core: CT, RTG core: TT)”, 0.166; for “GCGCGACCTTGGGTTCTAACCTGTTGCTTAT [GCGCGACCTAA_LTGcore_CT_RTGcore_AT] (site GCGCGACCTAA) (LTG core: CT, RTG core: AT)”, 0.103.
